# Assay results as given in patent publication US20260317347A1, “MACROCYCLIC COMPOUNDS AND THERAPEUTIC USES THEREOF” (SUNRISE ONCOLOGY (HONG KONG) LIMITED, priority 2023, published 2026).
# Entries after “also recorded” stand apart in the source; their conditions may differ.
# Experiments:
# [1] = target: KRAS G12S GTP + RAF1 + CYPA (Homo sapiens, UniProt P01116+P62937, G12S); test: Ras: RAF1 HTRF Assay (RAS-GTP & Raf disruption); assay type: biochemical; settings: 1 h incubation, room temperature
# Procedure: (§1) This example is to verify the binding between RAS protein and its interacting protein (SOS1 or RAF1). When RAS exists with SOS1 or RAF, the two interact to make the energy donor and receptor bound to it close enough, and then when the donor is excited by an external light source, energy resonance transfer occurs, thereby exciting the receptor and emitting a specific wavelength of emitted light, the FRET signal is detected.
# Specific experimental methods: 20 nM purified RAS protein (e.g. KRAS-G12D, G12V, G12C, WT; NRAS-WT) was incubated with the drug to be screened (the drug was diluted in a 3-fold gradient to a final concentration of 1000 nM) at room temperature for 1 h. […] After adding the detection antibody (PerkinElmer, Cisbio, HTRF antibody), the value was measured according to the manufacturer's instructions.
# RAS dependent cells = test: Cell Viability Assay (MTS), overall statement; assay type: cell-based; settings: FIG. 2
# Text: (§2) Selective screening using RAS-driven and RAS-non-driven cells: (1) RAS-driven cells, including cells with persistent RAS activation due to RAS mutations and upstream EGFR activation. Cells that are continuously activated due to RAS mutations, such as KRAS G12D (AsPC-1, HPAC, etc.) mutant cells, KRAS G12C (NCI-H358, MIAPaCa-2, etc.) KRAS G13D (LOVO, HCT15, etc.) mutant cells, etc. Cells with continuous activation of RAS due to EGFR mutations, such as EGFREx19del (PC-9, etc.) mutant cells, EGFRT790M/L858R (NCI-H1975, etc.) mutant cells, etc.; (2) Non-RAS driven cells, including BRAFV600E (A375, SK)-MEL-3, etc.) mutant cells, RASWT (BxPC-3, etc.) cells, etc.
# (§3) Specific experimental methods: The above cells were seeded in a 96-well plate at a density of 1000-10000 per well. Drugs were diluted in DMSO to make a 10 mM stock solution. Subsequently, the drug was diluted in a 3-fold gradient to a final concentration of 1000 nM. The cells were treated with the drug for 5 days. Cell viability was then detected by the MTS method.
# A375 (BRAF V600E) cells = test: Cell Viability Assay (MTS); assay type: cell-based; settings: RAS-independent, 5 days, FIG. 2
# Text: as §2, §3
# HepG2 (NRAS Q61L) cells = test: Cell Viability Assay (MTS); assay type: cell-based; settings: 5 days, FIG. 2
# Text: as §2, §3
# [2] = tested on: NCI-H1975 (EGFR T790M/L858R) cells; test: Cell Viability Assay (MTS); assay type: cell-based; settings: 5 days, FIG. 2
# Text: as §2, §3
# SW620 (KRAS G12V) cells = test: Cell Viability Assay (MTS); assay type: cell-based; settings: 5 days, FIG. 2
# Text: as §2, §3
# LOVO (KRAS G13D) cells = test: Cell Viability Assay (MTS); assay type: cell-based; settings: 5 days, FIG. 2
# Text: as §2, §3
# AGS (KRAS G12D) cells = test: Cell Viability Assay (MTS); assay type: cell-based; settings: 5 days, FIG. 2
# Text: as §2, §3
# [3] = target: KRAS G12V GTP + RAF1 + CYPA (Homo sapiens, UniProt P01116+P62937, G12V); test: Ras: RAF1 HTRF Assay (RAS-GTP & Raf disruption); assay type: biochemical; settings: 1 h incubation, room temperature
# Procedure: as §1
# (§4) Specific experimental methods: 20 nM purified RAS protein (e.g. KRAS-G12D, G12V, G12C, WT; NRAS-WT) was incubated with the drug to be screened (the drug was diluted in a 3-fold gradient to a final concentration of 1000 nM) at room temperature for 1 h. Subsequently, 30 nM purified SOS1-Cat was added and incubated at room temperature for 0.5-1 h. After adding the detection antibody (PerkinElmer, Cisbio, HTRF antibody), the value was measured according to the manufacturer's instructions.
# [4] = target: HRAS WT GTP + RAF1 + CYPA (Homo sapiens, UniProt P01112+P62937); test: Ras: RAF1 HTRF Assay (RAS-GTP & Raf disruption); assay type: biochemical; settings: 1 h incubation, room temperature
# Procedure: as §1, §4
# [5] = target: KRAS G12R GTP + RAF1 + CYPA (Homo sapiens, UniProt P01116+P62937, G12R); test: Ras: RAF1 HTRF Assay (RAS-GTP & Raf disruption); assay type: biochemical; settings: 1 h incubation, room temperature
# Procedure: as §1, §4
# [6] = target: KRAS G12C GTP + RAF1 + CYPA (Homo sapiens, UniProt P01116+P62937, G12C); test: Ras: RAF1 HTRF Assay (RAS-GTP & Raf disruption); assay type: biochemical; settings: 1 h incubation, room temperature
# Procedure: as §1, §4
# [7] = target: KRAS G12D GTP + RAF1 + CYPA (Homo sapiens, UniProt P01116+P62937, G12D); test: Ras: RAF1 HTRF Assay (RAS-GTP & Raf disruption); assay type: biochemical; settings: 1 h incubation, room temperature
# Procedure: as §1, §4
# [8] = target: KRAS Q61H GTP + RAF1 + CYPA (Homo sapiens, UniProt P01116+P62937, Q61H); test: Ras: RAF1 HTRF Assay (RAS-GTP & Raf disruption); assay type: biochemical; settings: 1 h incubation, room temperature
# [9] = tested on: RAF1 with active KRAS mutant protein or HRAS WT protein; test: Ras: RAF1 HTRF Assay, overall statement; assay type: biochemical; settings: in words; FIG. 1
# Sequence of KRAS Q61H GTP + RAF1 + CYPA (P01116 1-188 isoform P01116-2 Q61H): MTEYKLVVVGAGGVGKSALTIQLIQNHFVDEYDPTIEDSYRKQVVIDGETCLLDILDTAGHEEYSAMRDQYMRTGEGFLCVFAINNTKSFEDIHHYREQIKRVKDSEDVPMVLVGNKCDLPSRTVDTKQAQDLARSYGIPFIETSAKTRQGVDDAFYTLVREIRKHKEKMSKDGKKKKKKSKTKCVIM
# Sequence of KRAS Q61H GTP + RAF1 + CYPA (P62937 whole entry): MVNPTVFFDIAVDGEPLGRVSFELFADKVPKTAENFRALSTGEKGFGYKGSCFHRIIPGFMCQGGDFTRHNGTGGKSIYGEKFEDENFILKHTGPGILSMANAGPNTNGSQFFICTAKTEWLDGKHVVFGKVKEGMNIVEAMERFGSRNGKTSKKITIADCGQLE
# Sequence of HRAS WT GTP + RAF1 + CYPA (P01112 whole entry): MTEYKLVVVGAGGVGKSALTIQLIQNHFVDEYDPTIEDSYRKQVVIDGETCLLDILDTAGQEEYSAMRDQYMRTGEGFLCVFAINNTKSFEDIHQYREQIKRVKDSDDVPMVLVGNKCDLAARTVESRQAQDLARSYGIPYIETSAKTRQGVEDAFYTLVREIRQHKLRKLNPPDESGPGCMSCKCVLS
# Sequence of HRAS WT GTP + RAF1 + CYPA (P62937 whole entry): as the sequence (P62937 whole entry) above
# Sequence of KRAS G12V GTP + RAF1 + CYPA (P01116 1-188 isoform P01116-2 G12V): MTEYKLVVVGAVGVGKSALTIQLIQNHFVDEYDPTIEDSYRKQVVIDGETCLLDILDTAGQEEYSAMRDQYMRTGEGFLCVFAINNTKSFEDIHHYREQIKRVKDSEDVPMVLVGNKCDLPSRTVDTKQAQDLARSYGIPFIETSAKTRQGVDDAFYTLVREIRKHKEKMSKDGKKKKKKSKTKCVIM
# Sequence of KRAS G12V GTP + RAF1 + CYPA (P62937 whole entry): as the sequence (P62937 whole entry) above
# Sequence of KRAS G12C GTP + RAF1 + CYPA (P01116 1-188 isoform P01116-2 G12C): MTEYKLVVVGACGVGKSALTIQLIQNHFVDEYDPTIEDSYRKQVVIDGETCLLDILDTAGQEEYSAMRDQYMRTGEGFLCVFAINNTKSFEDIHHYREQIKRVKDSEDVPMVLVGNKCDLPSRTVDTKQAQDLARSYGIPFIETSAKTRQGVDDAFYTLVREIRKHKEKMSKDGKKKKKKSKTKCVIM
# Sequence of KRAS G12C GTP + RAF1 + CYPA (P62937 whole entry): as the sequence (P62937 whole entry) above
# Sequence of KRAS G12R GTP + RAF1 + CYPA (P01116 1-188 isoform P01116-2 G12R): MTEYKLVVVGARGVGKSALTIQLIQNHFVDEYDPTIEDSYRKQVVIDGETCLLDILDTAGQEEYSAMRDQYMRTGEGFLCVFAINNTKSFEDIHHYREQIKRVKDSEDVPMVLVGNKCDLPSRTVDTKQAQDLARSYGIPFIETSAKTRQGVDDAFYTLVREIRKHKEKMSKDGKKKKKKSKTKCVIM
# Sequence of KRAS G12R GTP + RAF1 + CYPA (P62937 whole entry): as the sequence (P62937 whole entry) above
# Sequence of KRAS G12S GTP + RAF1 + CYPA (P01116 1-188 isoform P01116-2 G12S): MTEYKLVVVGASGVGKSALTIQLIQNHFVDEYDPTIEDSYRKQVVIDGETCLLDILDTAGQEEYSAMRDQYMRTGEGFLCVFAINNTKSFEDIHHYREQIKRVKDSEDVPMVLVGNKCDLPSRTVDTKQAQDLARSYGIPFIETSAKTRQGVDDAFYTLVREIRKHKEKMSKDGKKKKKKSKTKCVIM
# Sequence of KRAS G12S GTP + RAF1 + CYPA (P62937 whole entry): as the sequence (P62937 whole entry) above
# Sequence of KRAS G12D GTP + RAF1 + CYPA (P01116 1-188 isoform P01116-2 G12D): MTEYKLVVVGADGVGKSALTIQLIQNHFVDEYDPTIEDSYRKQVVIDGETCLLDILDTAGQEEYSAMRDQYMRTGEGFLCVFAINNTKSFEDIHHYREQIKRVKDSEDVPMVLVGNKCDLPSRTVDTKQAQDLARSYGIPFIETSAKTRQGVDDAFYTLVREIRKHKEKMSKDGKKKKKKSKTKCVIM
# Sequence of KRAS G12D GTP + RAF1 + CYPA (P62937 whole entry): as the sequence (P62937 whole entry) above
structure (smiles),measurement,setting,value
"CCn1c(-c2cc(P(C)(C)=O)ccc2[C@H](C)OC)c2c3cc(ccc31)-c1cc(O)cc(c1)C[C@H](NC(=O)[C@H](C(C)C)N(C)C(=O)[C@@H]1OCC[C@@H]1c1ccccc1)C(=O)N1CCC[C@H](N1)C(=O)OCC(C)(C)C2 [Example 2, (2R,3R)—N-((2S)-1-(((6^3S,4S)-1^2-(5-(dimethylphosphoryl)-2-((S)-1-methoxyethyl)phenyl)-1^1-ethyl-2^5-hydroxy-10,10-dimethyl-5,7-dioxo-6^1,6^2,6^3,6^4,6^5,6^6-hexahydro-1^1H-8-oxa-1(5,3)-indola-6(1,3)-pyridazina-2(1,3)-benzenacycloundecaphane-4-yl)amino)-3-methyl-1-oxobutan-2-yl)-N-methyl-3-phenyltetrahydrofuran-2-carboxamide]",IC50,[1],19.6 ± 1.03 nM
same,inhibition of cell viability,RAS dependent cells,potently inhibited
same,inhibition of cell viability,A375 (BRAF V600E) cells,relative insensitive
same,inhibition of cell viability,HepG2 (NRAS Q61L) cells,significantly inhibited
same,inhibition of cell viability,[2],significantly inhibited
same,inhibition of cell viability,SW620 (KRAS G12V) cells,significantly inhibited
same,inhibition of cell viability,LOVO (KRAS G13D) cells,significantly inhibited
same,inhibition of cell viability,AGS (KRAS G12D) cells,significantly inhibited
same,IC50,[3],165 ± 7.92 nM
same,IC50,[4],467.8 ± 4.6 nM
same,IC50,[5],729 ± 106 nM
same,IC50,[6],15.8 ± 3.97 nM
same,IC50,[7],55.9 ± 8.92 nM
same,IC50,[8],31.24 ± 0.3 nM
same,inhibition of the interaction of RAF1 with active KRAS mutant protein or HRAS WT protein,[9],potently inhibited; also recorded: significantly inhibited
